The structures appear in SMILES notation.

In data set [1] the test system is NCI-N87 tumors (human gastric carcinoma cells). As to the kind of experiment: NCI-N87 gastric cancer xenograft model, first experiment (Example 3). It is filed as in vivo, mice. On the procedure: Cells are harvested with trypsin (0.25% w/v)-EDTA (0.53 mM), are re-suspended in culture medium (with additives) and are counted with a Casy® system. Cell culture reagents are purchased from BioConcept (Allschwil, Switzerland). NCI-N87 tumors are established by injecting […] to 1×10^7 cells (in HBSS containing 50% v/v Matrigel) subcutaneously with a 23 Gauge needle. When tumors are established and reach between 180 and 210 mm^3, animals are randomized into treatment groups and the treatments are initiated. Compound A is formulated in NMP/PEG300/Solutol HS15/water (10:30:20:40% vol/vol) The compound is fully dissolved in NMP first and water is added immediately prior to administration to animals. […] All doses of AUY922 refer to the free base equivalent. AUY922 is administered iv at a volume of 10 ml/kg, twice a week. […] Pairwise comparisons are done using a one way ANOVA followed by Tukey's test. The level of significance of body weight change within a group between start and end of the treatment period is determined using a paired t-test. […] Calculations are performed using GraphPad Prism 4 for windows (GraphPad Software Inc.). In addition, an approximation of drug interactions is made using the method described by Clarke R., “Issues in experimental design and endpoint analysis in the study of experimental cytotoxic agents in vivo in breast cancer and other models”, Breast Cancer Res. Treat, 46, 255-78 (1997). This is applied to MV (Tumor volume). Female athymic nude mice are treated orally once a day with 50 mg/kg Compound A, alone or in combination with 50 mg/kg of AUY922 administered intravenously twice a week. […] For compound A, B or the combination AB (with Vehicle Control group C), antagonism is predicted when the calculation AB/C>A/C×B/C, additive effect: AB/C=A/C×B/C, synergistic interactions are predicted to occur when AB/C<[…].

The nature of data set [2]: Stability of Compound A dosing formulation. It is filed as physicochemical. The note with it: room temperature. As for the experimental part:
Compound A is formulated in NMP/PEG300/Solutol HS15/water (10:30:20:40% vol/vol) The compound is fully dissolved in NMP first and water is added immediately prior to administration to animals.
Compound A is formulated in NMP/PEG300/Solutol HS15/water (10:30:20:40% vol/vol). The compound is fully dissolved in NMP first and water is added immediately prior to administration to animals.

As a reminder, the T/C is the ratio of treated to control. As for `Cc1nc(NC(=O)N2CCC[C@H]2C(N)=O)sc1-c1ccnc(C(C)(C)C(F)(F)F)c1` [Compound A, (S)-Pyrrolidine-1,2-dicarboxylic acid 2-amide 1-({4-methyl-5-[2-(2,2,2-trifluoro-1,1-dimethyl-ethyl)-pyridin-4-yl]-thiazol-2-yl}-amide)], the T/C in data set [1] (Compound A 50 mg/kg orally once a day, single agent) worked out at 4.2%. The “ΔTV Cmpd. A (A)” value in data set [1] (Compound A 50 mg/kg orally once a day, change of tumor volume (mm^3)) was found to be 1.4. Further, in data set [1] (ΔTV of Compound A over vehicle control, Clarke method), the A/C is listed as 0.006. Also, the stability of suspension entry in data set [2] (Compound A in NMP/PEG300/Solutol HS15/water (10:30:20:40% vol/vol)) and in data set [2] (Compound A suspension in 0.5% Methylcellulose) was “stable for one week” throughout.

Source of the values: patent publication US20160199365A1, “2-Carboxamide Cycloamino Urea Derivatives in Combination with HSP90 Inhibitors for the Treatment of Proliferative Diseases” (Novartis AG, priority 2011, published 2016).
